Measured values as given in publication PMC6414448, “Acaricidal Mechanism of Scopoletin Against Tetranychus cinnabarinus” (Frontiers in Physiology, 2019).

Molecular target: T1, TcGPCR (G-protein-coupled neuropeptide receptor) (Tetranychus cinnabarinus, UniProt A0A2L1GE98)
T1 construct: full ORF in pcDNA3.1(+), transient expression in CHO-WTA11 cells with aequorin and Galpha16; seven TM helices, rhodopsin-like; T. urticae orthologue locus tetur02g03830
T1 sequence (A0A2L1GE98 1-513): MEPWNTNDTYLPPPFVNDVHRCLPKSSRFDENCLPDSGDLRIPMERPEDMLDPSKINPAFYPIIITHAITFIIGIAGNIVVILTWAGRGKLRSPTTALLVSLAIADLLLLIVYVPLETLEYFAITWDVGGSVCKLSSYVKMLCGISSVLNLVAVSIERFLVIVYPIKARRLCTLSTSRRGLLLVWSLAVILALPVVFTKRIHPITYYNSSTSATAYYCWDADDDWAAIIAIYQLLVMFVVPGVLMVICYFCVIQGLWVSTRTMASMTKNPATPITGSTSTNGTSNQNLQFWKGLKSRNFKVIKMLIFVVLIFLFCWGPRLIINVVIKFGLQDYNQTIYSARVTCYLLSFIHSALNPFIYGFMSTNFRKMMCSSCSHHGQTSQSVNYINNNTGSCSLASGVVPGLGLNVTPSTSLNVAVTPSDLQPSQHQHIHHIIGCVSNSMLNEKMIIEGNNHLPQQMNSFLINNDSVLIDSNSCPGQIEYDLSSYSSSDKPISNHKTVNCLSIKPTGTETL
Assay: aequorin luminescence calcium mobilization in transfected CHO-WTA11 cells
Assay type: cell-based
Source text: aequorin luminescence calcium mobilization in transfected CHO-WTA11 cells on TcGPCR (G-protein-coupled neuropeptide receptor) | CHO cells expressing TcGPCR was induced by scopoletin in a concentration-dependent manner

## COc1cc2ccc(=O)oc2cc1O [scopoletin]
  EC50: 280 nM
